In ChEMBL document CHEMBL3352062, “Synthesis and biological evaluation of bile carboxamide derivatives with pro-apoptotic effect on human colon adenocarcinoma cell lines” (Eur J Med Chem, 2014):
Calls of active or inactive are those of the source. The rule behind the calls is not given here.

Key:
HCT-116 [1] = assay: Antiproliferative activity against human HCT116 cells assessed as reduction in cell viability after 24 to 48 hrs by XTT assay; format: functional, cell-based
DLD-1 [2] = assay: Antiproliferative activity against human DLD1 cells assessed as reduction in cell viability after 24 to 48 hrs by XTT assay; format: functional, cell-based
HT-29 [3] = assay: Antiproliferative activity against human HT-29 cells assessed as reduction in cell viability after 24 to 48 hrs by XTT assay; format: functional, cell-based
DLD-1 [4] = assay: Induction of apoptosis in human DLD1 cells assessed as PARP cleavage at 30 uM after 24 hrs using propidium iodide by Western blot analysis; format: functional, cell-based
[5] = Cell cycle arrest in human HCT116 cells assessed as accumulation at sub-G1 phase at 30 uM after 24 hrs using propidium iodide by flow cytometry (reference value: 1.78 %); format: functional, cell-based; conditions: HCT-116
[6] = Antiproliferative activity against human DLD1 cells assessed as reduction in cell viability after 24 hrs by XTT assay; format: functional, cell-based; conditions: DLD-1, 24 h
HT-29 [7] = assay: Cell cycle arrest in human HT-29 cells assessed as accumulation at G2-M phase at 30 uM after 24 hrs using propidium iodide by flow cytometry (reference value: 21.66 %); format: functional
HT-29 [8] = assay: Antiproliferative activity against human HT-29 cells assessed as reduction in cell viability after 24 hrs by XTT assay; format: functional, cell-based; conditions: HT-29, 24 h
HCT-116 [9] = assay: Induction of apoptosis in human HCT116 cells assessed as PARP cleavage at 30 uM after 24 hrs using propidium iodide by Western blot analysis; format: functional, cell-based
[10] = Cell cycle arrest in human HCT116 cells assessed as accumulation at S phase at 30 uM after 24 hrs using propidium iodide by flow cytometry (reference value: 18.80 %); format: functional, cell-based; conditions: HCT-116
[11] = Cell cycle arrest in human DLD1 cells assessed as accumulation at sub-G1 phase at 30 uM after 24 hrs using propidium iodide by flow cytometry (reference value: 1.73 %); format: functional, cell-based; conditions: DLD-1
HT-29 [12] = assay: Induction of apoptosis in human HT-29 cells assessed as APO2.7-positive cells at 30 uM after 24 hrs using propidium iodide by flow cytometry (reference value: 1.11 %); format: functional
HT-29 [13] = assay: Cell cycle arrest in human HT-29 cells assessed as accumulation at sub-G1 phase at 30 uM after 24 hrs using propidium iodide by flow cytometry (reference value: 3.18 %); format: functional
[14] = Cell cycle arrest in human DLD1 cells assessed as accumulation at G0-G1 phase at 30 uM after 24 hrs using propidium iodide by flow cytometry (reference value: 35.37 %); format: functional, cell-based; conditions: DLD-1
[15] = Cell cycle arrest in human HCT116 cells assessed as accumulation at G2-M phase at 30 uM after 24 hrs using propidium iodide by flow cytometry (reference value: 33.69 %); format: functional, cell-based; conditions: HCT-116
HT-29 [16] = assay: Induction of apoptosis in human HT-29 cells assessed as PARP cleavage at 30 uM after 24 hrs using propidium iodide by Western blot analysis; format: functional, cell-based
HT-29 [17] = assay: Cell cycle arrest in human HT-29 cells assessed as accumulation at S phase at 30 uM after 24 hrs using propidium iodide by flow cytometry (reference value: 28.28 %); format: functional
[18] = Cell cycle arrest in human DLD1 cells assessed as accumulation at S phase at 30 uM after 24 hrs using propidium iodide by flow cytometry (reference value: 21.08 %); format: functional, cell-based; conditions: DLD-1
HT-29 [19] = assay: Cell cycle arrest in human HT-29 cells assessed as accumulation at G0-G1 phase at 30 uM after 24 hrs using propidium iodide by flow cytometry (reference value: 43.78 %); format: functional
[20] = Cell cycle arrest in human HCT116 cells assessed as accumulation at G0-G1 phase at 30 uM after 24 hrs using propidium iodide by flow cytometry (reference value: 42.61 %); format: functional, cell-based; conditions: HCT-116
HCT-116 [21] = assay: Induction of apoptosis in human HCT116 cells assessed as APO2.7-positive cells at 30 uM after 24 hrs using propidium iodide by flow cytometry (reference value: 1.19 %); format: functional
[22] = Cell cycle arrest in human DLD1 cells assessed as accumulation at G2-M phase at 30 uM after 24 hrs using propidium iodide by flow cytometry (reference value: 39.85 %); format: functional, cell-based; conditions: DLD-1
[23] = Antiproliferative activity against human HCT116 cells assessed as reduction in cell viability after 24 hrs by XTT assay; format: functional, cell-based; conditions: HCT-116, 24 h
DLD-1 [24] = assay: Induction of apoptosis in human DLD1 cells assessed as APO2.7-positive cells at 30 uM after 24 hrs using propidium iodide by flow cytometry (reference value: 1.01 %); format: functional

| IC50 (HT-29 [8]) | Compound | Activity (HCT-116 [1]) | Activity (DLD-1 [2]) | Activity (HT-29 [3]) | Activity (DLD-1 [4]) | Activity [5] | IC50 [6] | Activity (HT-29 [7]) | Activity (HCT-116 [9]) | Activity [10] | Activity [11] | Activity (HT-29 [12]) | Activity (HT-29 [13]) | Activity [14] | Activity [15] | Activity (HT-29 [16]) | Activity (HT-29 [17]) | Activity [18] | Activity (HT-29 [19]) | Activity [20] | also measured |
| --- | --- | --- | --- | --- | --- | --- | --- | --- | --- | --- | --- | --- | --- | --- | --- | --- | --- | --- | --- | --- | --- |
| – | C[C@H](CCC(=O)N1CCN(C(c2ccccc2)c2ccc(Cl)cc2)CC1)[C@H]1CC[C@H]2[C@@H]3[C@@H](O)C[C@@H]4C[C@H](O)CC[C@]4(C)[C@H]3CC[C@]12C (stereo not given in full) | Dose-dependent effect | Dose-dependent effect | Dose-dependent effect | – | – | – | – | – | – | – | – | – | – | – | – | – | – | – | – | – |
| – | C[C@H](CCC(=O)N1CCN(Cc2ccccc2)CC1)[C@H]1CC[C@H]2[C@@H]3CC[C@@H]4C[C@H](O)CC[C@]4(C)[C@H]3CC[C@]12C | Dose-dependent effect | Dose-dependent effect | Dose-dependent effect | – | – | – | – | – | – | – | – | – | – | – | – | – | – | – | – | – |
| 35 µM | C[C@H](CCC(=O)N1CCN(C/C=C/c2ccccc2)CC1)[C@H]1CC[C@H]2[C@@H]3[C@H](O)C[C@@H]4C[C@H](O)CC[C@]4(C)[C@H]3CC[C@]12C | – | – | – | Active | 31.2% | 36 µM | 4.77% | Active | 22.5% | 49.8% | 8.79% | 48.38% | 24% | 11.3% | Active | 18.65% | 18.8% | 28.49% | 33% | Activity (HCT-116 [21]): 37.73%; Activity [22]: 6.22%; IC50 [23]: 34 µM; Activity (DLD-1 [24]): 34.87% |
| 36 µM | C[C@H](CCC(=O)N1CCN(Cc2ccccc2)CC1)[C@H]1CC[C@H]2[C@@H]3[C@H](O)C[C@@H]4C[C@H](O)CC[C@]4(C)[C@H]3CC[C@]12C | – | – | – | Active | 13% | 33 µM | 13.63% | Active | 17.8% | 10.7% | 8.57% | 18.13% | 40% | 26.6% | Active | 17.11% | 14.1% | 49.08% | 36.9% | Activity (HCT-116 [21]): 20.33%; Activity [22]: 32.2%; IC50 [23]: 23 µM; Activity (DLD-1 [24]): 22.54% |
| – | C[C@H](CCC(=O)N1CCN(C(c2ccc(F)cc2)c2ccc(F)cc2)CC1)[C@H]1CC[C@H]2[C@@H]3[C@H](O)C[C@@H]4C[C@H](O)CC[C@]4(C)[C@H]3CC[C@]12C | Dose-dependent effect | Dose-dependent effect | Dose-dependent effect | – | – | – | – | – | – | – | – | – | – | – | – | – | – | – | – | – |
| – | C[C@H](CCC(=O)N1CCN(C(c2ccccc2)c2ccc(Cl)cc2)CC1)[C@H]1CC[C@H]2[C@@H]3CC[C@@H]4C[C@H](O)CC[C@]4(C)[C@H]3C[C@H](O)[C@]12C (stereo not given in full) | Dose-dependent effect | Dose-dependent effect | Dose-dependent effect | – | – | – | – | – | – | – | – | – | – | – | – | – | – | – | – | – |
| 32 µM | C[C@H](CCC(=O)N1CCN(Cc2ccccc2)CC1)[C@H]1CC[C@H]2[C@@H]3CC[C@@H]4C[C@H](O)CC[C@]4(C)[C@H]3C[C@H](O)[C@]12C | – | – | – | Active | 14.8% | 26 µM | 11.14% | Active | 18.4% | 14.3% | 1.26% | 34.81% | 28.5% | 28.9% | Active | 15.67% | 15.4% | 36.89% | 33.6% | Activity (HCT-116 [21]): 4.59%; Activity [22]: 39%; IC50 [23]: 22 µM; Activity (DLD-1 [24]): 2.49% |
